assay: gradient 5% acetonitrile 3 min, to 50% in 2 min, to 85% in 15 min, held 3 min, 100 µL/min; conditions: column: Zorbax Extend-C18 2.1 x 50 mm; eluents: water / acetonitrile, 0.1% formic acid
Outline: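 Pure standards were run in mixtures of ~100 molecules by HPLC coupled to a quadrupole time-of-flight mass spectrometer. The column was a Zorbax Extend-C18 (2.1 × 50 mm, 1.8 μm) at 100 μL/min, with water and acetonitrile each containing 0.1% formic acid, in positive and negative ionization mode. Dead and dwell volumes were 40 μL and 900 μL. Retention time was taken from computationally picked adduct peaks, each manually inspected, with data collected over 3 months.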

RP-LC retention time [s]	Structure (SMILES)
583	COC(=O)c1c(NCCN2CCC(C)CC2)c2cccc(Cl)c2[nH]c1=O
720	CN(C)C(=O)c1csc(S(=O)(=O)N2CCC(C(=O)NC3CCCCC3)CC2)c1
585	CC1CCCCN1CCNC(=O)CCC(=O)N1CCc2c(c(C(=O)N3CCCCC3)nn2C)C1 (stereo not drawn)
895	Cc1nc(N2CCOCC2)c2c(C(=O)N3CCN(c4ccc(Cl)cc4)CC3)c(C)oc2n1
782	O=C(CC1CCN(C(=O)c2ccc3oc(-c4ccccc4)nc3c2)CC1)N1CCCC1
664	CCC(C)NC(=O)C1CCN(c2nc3cccnc3s2)CC1 (stereo not drawn)
701	Cc1ccc(S(=O)(=O)N2CCC(CC(=O)N3CCN(c4ccccn4)CC3)CC2)cc1
736	COc1ccccc1NC(=O)N1CCC(n2cnc3ccccc3c2=O)CC1
677	CCn1c(C(=O)NCCCN2CCCC(C)C2)cc2cc(S(=O)(=O)N(C)C)ccc21 (stereo not drawn)
578	Cn1c(N2CCCC(C(=O)N3CCN(c4ccccn4)CC3)C2)cc(=O)n(C)c1=O (stereo not drawn)
848	CC(=O)N1c2ccc(S(=O)(=O)N3CCCC3)cc2CC1C(=O)NCCc1ccccc1C (stereo not drawn)
937	O=C(c1ccc(-c2ccc3c(c2)CCN3S(=O)(=O)c2cccc(F)c2)cc1)N1CCOCC1
658	CC(C)CCNC(=O)N1CCN(c2cc(-c3ccccc3)ncn2)CC1
918	CCCN1C(=O)c2c(C(=O)NCCc3cccc(C)c3)ncn2CC1(C)C(=O)NC1CCCC1 (stereo not drawn)
1010	CCc1ccc(S(=O)(=O)N2CCC(c3nc(C(=O)N4CCCC4)c(C)o3)CC2)cc1
958	COc1ccc(Cl)cc1S(=O)(=O)N(C)C1CCc2nn(CC3CC3)c(=O)n2CC1 (stereo not drawn)
892	CCn1cc(C(=O)Nc2ccc(Cl)cc2)c(S(=O)(=O)N2CCSCC2)n1
844	CCOC(=O)C1CCN(c2cc3c(cc2NC(=O)C(C)(C)C)n(C)c(=O)c(=O)n3C)CC1

RP-LC retention time [s]	Structure (SMILES)
813	Cc1cccc(NC(=O)C2CCCN2S(=O)(=O)c2cc3c(cc2C)NC(=O)C(C)O3)c1 (stereo not drawn)
715	CCCNC(=O)C1CCCN(c2nc3ncn(CC(=O)Nc4ccc(C)c(C)c4)c(=O)c3s2)C1 (stereo not drawn)
663	CCS(=O)(=O)N1CCCN(C(=O)NC(C)(C)C)CC1
734	COc1ccc(NC(=O)N2CCC3(CC2)NC(=O)c2ccc(Cl)cc2N3C)cc1OC
685	Cc1ccc(NC(=O)N2CCCC(Cn3c(C4CC4)nc4cccnc43)C2)cc1 (stereo not drawn)
962	CC1=C(c2ccc(C)cc2)S(=O)(=O)N=C1N1CCCN(C(=O)CC2CCCCC2)CC1
863	Cc1cc(Cl)ccc1N1C(=O)CN(S(C)(=O)=O)CC1(C)C(=O)NCc1ccccc1 (stereo not drawn)
946	CCC(C)NC(=O)c1cc2c(n(-c3ccc(C(F)(F)F)cc3)c1=O)CCCC2=O (stereo not drawn)
595	CCCN1CCN(c2cc(C(=O)O)c3cc(NS(=O)(=O)c4ccccc4Cl)ccc3n2)CC1
807	CCN1C(=O)c2cc(C(=O)Nc3ccccc3C)nn2CC1(C)C(=O)NC1CCCC1 (stereo not drawn)
725	CCOC(=O)CNC(=O)N1CCC(N2CCN(Cc3cccc(C)c3)C2=O)CC1
754	CC(C)Oc1ccc(CNC(=O)c2ccc3c(c2)nc2n3CCN(C(C)C)C2=O)cc1
708	Cc1ccc(NC(=O)N2CCN(c3ccc(=O)n(-c4ccccc4)n3)CC2)cc1Cl
839	COC(=O)c1c2c(nc3ccccc13)CCN(C(=O)Nc1cc(OC)ccc1OC)C2
979	CC(C)NC(=O)c1ccc(OCC2CCCN(C(=O)Cc3ccc(F)cc3)C2)cc1 (stereo not drawn)
848	CCNC(=O)C1CCN(c2nc3ccc(-c4ccccc4F)nc3s2)CC1
648	O=C(CN1CCN(Cc2cccc(Cl)c2)C1=O)N1CCN(C2CCCCC2)CC1

Continued, compound first:

Structure (SMILES)	RP-LC retention time [s]
Cc1ccc2oc(-c3noc(C(=O)NCCN(C)C)n3)c(C)c2c1	682
CC(C)c1nc2ccc(C(=O)NCCc3c[nH]c4ccc(Cl)cc34)cc2o1	941
COc1ccccc1C1=NS(=O)(=O)c2cc(S(=O)(=O)N3CCOCC3)ccc2N1	718
C[C@H]1C2Cc3ccc(O)cc3[C@@]1(C)CCN2CC1CC1	669
O=C1COc2ccccc2N1Cc1nc(-c2ccc(F)c(Cl)c2)no1	1090
COc1cc(CN2CCc3nc(N4CCN(c5ccccn5)CC4)ncc3C2)cc(OC)c1OC	567
O=C(CSc1nnc2c3cc(-c4ccccc4)nn3ccn12)NCc1ccccc1Cl	800
CCN(CC)C(=O)Cn1ccc2ccc(-c3nnc(C)o3)cc21	718
O=c1c2cnc3nc(-c4ccccc4)nn3c2ccn1CCc1c[nH]c2ccc(Cl)cc12	997
CC1CCC(NC(=O)Cc2csc3nc(-c4ccccc4)cn23)CC1 (stereo not drawn)	843
COc1ccc(NC(=O)c2cnc3c(c2)c(=O)n(C)c(=O)n3-c2ccccc2)cc1F	858
Cc1cccc(CNC(=O)CN2CCN(Cc3ccc(F)cc3)C(=O)C2=O)c1	740
Cc1ccc(-c2nc(-c3ccc4oc(C)nc4c3)no2)c(C)c1	1310
COc1ccc(C(=O)N2CCc3ccc(C(=O)Nc4ccc5c(c4)OCO5)cc32)cc1	773
COCc1cc(=O)n(Cc2ccccc2F)c(N2CCCC2)n1	790
CCc1cccc(NC(=O)c2cc3sccc3n2Cc2ccc(Cl)cc2)c1	1340
COc1cccc(CN2CCC(N3CC4(CCCCC4)C3c3ccccc3)CC2)c1OC (stereo not drawn)	624
COC(=O)c1ccc(-c2nc3cnccn3c2Nc2ccc(C)cc2Br)cc1	1060
CSc1cccc(NC(=O)Cn2cnc3nc4c(cc3c2=O)CCCC4)c1	755
CC(C)Oc1ccc(CNC(=O)c2cc(-c3ccncc3)cn2C)cc1	640
COc1ccc(NC(=O)Cn2c(N3CCc4ccccc4C3)nc(C)cc2=O)cc1	757
Cc1ccc(-n2cc3c(N4CCCC(C(=O)NCc5cc(F)cc(F)c5)C4)ncnc3n2)cc1 (stereo not drawn)	740
CNC(=O)c1ccc(-c2nc3cc(NS(=O)(=O)c4cc(F)ccc4F)ccc3n2C)cc1	637
Cc1sc(C)c(S(=O)(=O)Nc2ccc(F)cc2)c1-c1cc(C(F)(F)F)on1	1140
Cc1cc(C(=O)Nc2ccc(-c3nc4ccccc4o3)cc2)no1	857
CCN1CCC(N(Cc2cccs2)C(=O)Nc2cccc(Br)c2)CC1	693
Cc1ccc(NC(=O)Cc2c(C)nn(-c3nc(-c4ccc(Cl)cc4)cs3)c2C)c(C)c1	1280

Structure (SMILES)	RP-LC retention time [s]
Cc1cccc(-c2nc(-c3ccc4c(c3)ncn4CCN3CCCC3)no2)c1	676
COc1cccc(CNC(=O)Nc2c(-c3ccccc3)nc3ccccn23)c1	653
Cc1noc(-c2cc(=O)n(CC(=O)Nc3ccc(Cl)cc3)c3ccccc23)n1	915
COc1ccc(NC(=O)CSc2nccnc2Sc2ccc(C)cc2)cc1OC	997
Cn1nc(C(F)(F)F)cc1C(=O)N1CCCC1c1cccc(F)c1 (stereo not drawn)	976
O=C(CCc1conc1-c1ccc(F)cc1)NC1CCCCCC1	969
O=S(=O)(NCCc1ccccn1)c1ccc2ccccc2c1	574
CC(C)n1c(CC2CCN(C(=O)Nc3ccccc3Cl)C2)nc2cccnc21 (stereo not drawn)	648
COc1cccc(-c2csc(Cc3nc(-c4ccccc4Cl)no3)n2)c1	1150
COc1cccc(C(O)CN2CCN(c3ccccc3OC)CC2)c1 (stereo not drawn)	659
COc1ccc(NC(=O)C(=O)c2cccn2C)c(OC)c1	976
COc1cccc(CNc2nccc(-n3nc(C)cc3C)n2)c1	808
CCc1nn2c(CNC(=O)c3ccc(C)c(C)c3)c(-c3ccccc3)nc2s1	983
Cc1ccn2cc(C(=O)NCc3ccc(Cl)cc3)nc2c1	704
CC(c1ccccc1)c1nc(-c2ccc3c(c2)nnn3CCN2CCOCC2)no1 (stereo not drawn)	714
COc1ccccc1-c1noc(C2CCCN2C(=O)Nc2cccc(C)c2)n1 (stereo not drawn)	881
O=C(Cc1ccccc1Br)NC1CCN(c2cc(-c3cccs3)[nH]n2)C1 (stereo not drawn)	689
CC(NC(=O)C1CCN(c2cnc3nccnc3c2)CC1)c1ccc(F)cc1 (stereo not drawn)	702
O=C(Nc1cccc(Cl)c1)N1CCC(n2c(-c3ccco3)nc3cccnc32)C1 (stereo not drawn)	800
CCn1ccc(C(=O)N2[C@H]3CC[C@@H]2c2cnc(C)nc2C3)n1	610
COc1cccc(N2CC(C(=O)N3CC(c4nc(Cc5ccccc5)no4)C3)CC2=O)c1 (stereo not drawn)	776
Cc1nc(Nc2ccc(Br)cn2)sc1C(=O)N1CCC(C(N)=O)CC1	642
CCCN(CC1CCOC1)C(=O)Nc1ccc(F)cc1 (stereo not drawn)	728
CC(C)n1cnc2cc(CNC(=O)c3ccccc3F)ccc21	606
O=C(Cn1ccc2ccn(Cc3cccnc3)c2c1=O)NC1CCCC1	605
CC1CCN(Cc2nc(-c3ccc(N4CCCC(C)C4)nc3)no2)CC1 (stereo not drawn)	695

Reference: the METLIN SMRT retention time set (Domingo-Almenara et al. 2019)
